Where “and” joins values, the source holds several entries; their conditions need not be identical. Equal entries are not always repeated.
B1: 19D12: Anti-IGFR antibody 19D12 (antibody, listed as Homo sapiens, V domains shown)
VL: MSPSQLIGFLLLWVPASRGEIVLTQSPGTLSVSPGERATLSCRASQSIGSSLHWYQQKPGQAPRLLIKYASQSLSGIPDRFSGSGSGTDFTLTISRLEPEDFAVYYCHQSSRLPHTFGQGTKVEIKRT
VH: MEFGLSWVFLVAILKGVQCEVQLVQSGGGLVKPGGSLRLSCAASGFTFSSFAMHWVRQAPGKGLEWISVIDTRGATYYADSVKGRFTISRDNAKNSLYLQMNSLRAEDTAVYYCARLGNFYYGMDVWGQGTTVTVSS

Legend:
[1] = system: H322 human NSCLC cells; assay: In vivo tumor inhibition assay, NSCLC xenograft model H322; set-up: species or system nude mice; details: for Growth: Day 0 to 31
Description: Five million H322 human NSCLC cells in Matrigel were inoculated subcutaneously into nude mice. Anti-IGFR antibody 19D12 and/or paclitaxel treatment was initiated when the tumor size reached ˜105-115 mm^3 at day 0. Both 19D12 and paclitaxel were dosed twice per week. Anti-IGFR antibody 19D12 was dosed at 0.5 mg per mouse. Paclitaxel was at 15 mpk. Ten animals per group. Tumor volumes were measured by Labcat.

[2] = system: H322 NSCLC cells; assay: Proliferation assay (Cell Titer-Glo) with anti-IGFR1 antibody and a chemotherapeutic agent, H322 NSCLC cells; format: cell-based, human; details: H322, Day4, replicates
Description: The ability of cells in culture to proliferate when exposed to varying concentrations of the 19D12/15H12 wild-type or 19D12/15H12 LCF/HCA anti-IGFR1 antibody and either paclitaxel, gefitinib, lonafarnib 4-hydroxy tamoxifen or doxorubicin was evaluated in this example.
Cell Preparation. […] The cells were trypsinized, counted and resuspended at a concentration of 25000 cells/ml in 10% HI-FBS (heat-inactivated fetal bovine serum) RPMI medium containing NEAA (non-essential amino acids), L-Glu, MEM Vitamins and PS. 100 ul of cell suspension (2500 cells) was added to each well of a BD Falcon 96 well black, clear bottom TC treated plate. The cells were allowed to attach and spread overnight at 37° C. The 10% RPMI solution was replaced with 100 μl RPMI containing 2% HI-FBS containing NEAA, L-Glu, MEM Vitamins and PS.
Solution Preparation. All assay reagents were prepared in RPMI containing 2% HI-FBS at 20× concentration and serial diluted for a total of 10 test concentrations per treatment. Every test point was prepared in triplicate on separate assay plates.
Reagent 1 and 19D12/15H12 or 19D12/15H12 LCF/HCA were set up individually as dose responses as well as in combination with each other. Cell proliferation was measured on Day4.
Assay. Cell proliferation was measured using the Promega Cell Titer-Glo Luminescent Cell Viability Assay (Promega Corp.; Madison, Wis.). This assay provided a method for determining the number of viable cells in culture based on quantitation of ATP in the culture, which indicates the presence of metabolically active cells.
The assay reagents and assay plates were equilibrated to room temperature and prepared immediately before addition to the assay plates. One volume of assay reagent was added to each well of the assay plate and shaken on an orbital platform for at least ten minutes to allow for equilibration of the ATP reaction and to ensure total lysis of all cells in the assay plate. […] Luminescence was detected on Wallac 420 Plate Reader with stacker.
The units in the tables (proliferation index) are arbitrary and are proportional to the number of viable cells observed in the culture under each respective condition.
In Tables 2-6, “ug” indicates micrograms and “uM” indicates micromolar.

[3] = Day 0 (treatment start), H322 xenograft in nude mice
[4] = 19D12 0.5 mg per mouse and/or Taxol 15 mpk, twice per week
[5] = Day 31, 19D12 0.5 mg per mouse and/or Taxol 15 mpk, twice per week

Molecule | tumor volume [1, 3] [mm3] | Growth [1, 4] | % inhibition (tumor growth inhibition) [1, 5] [%] | tumor volume [1, 5] [mm3] | proliferation index ([2]; Taxol alone 0.00256 ng/mL) | proliferation index ([2]; Taxol alone 0.064 ng/mL) | proliferation index ([2]; Taxol alone 8 ng/mL) | proliferation index ([2]; Taxol alone 40 ng/mL) | proliferation index ([2]; Taxol alone 200 ng/mL) | proliferation index ([2]; Taxol alone 1000 ng/mL)
CC(=O)O[C@H]1C(=O)[C@@]2(C)[C@H]([C@H](OC(=O)c3ccccc3)[C@]3(O)C[C@H](OC(=O)[C@H](O)[C@@H](NC(=O)c4ccccc4)c4ccccc4)C(C)=C1C3(C)C)[C@]1(OC(C)=O)CO[C@@H]1C[C@@H]2O [Taxol, paclitaxel] | 109.54 | 104.71 | 52 | 214.25 | 72498 and 78070 and 89290 and 71662 and 72122 and 77618 and 81720 and 80172 and 76744 | 75374 and 83082 and 74926 and 73584 and 75710 and 75356 and 87602 and 75690 and 76350 | 38354 and 33654 and 34598 and 31556 and 36038 and 35906 and 34498 and 53256 and 41418 | 22160 and 25204 and 22624 and 22020 and 22956 and 24152 and 23908 and 24834 and 22462 | 19372 and 23650 and 23668 and 23164 and 23482 and 24314 and 25752 and 23960 and 21420 | 20932 and 26882 and 24582 and 23884 and 23712 and 25890 and 24522 and 24842 and 20306
B1 | 106.57 | 66.45 | 75.50 | 173.02 |  |  |  |  |  | 
